{"source": "patent US20230348394A1", "about": "“COMPOSITIONS AND METHODS FOR TREATING MUSCULAR DYSTROPHIES” (The Regents of the University of California, priority 2020, published 2023)", "format_in_all_cases": "cell-based, murine", "key": {"SSPN gene expression": {"tested_on": "SSPN gene expression", "assay": "SSPN gene expression (qPCR) in dystrophin-deficient H2K mdx myotubes", "conditions": "0.5 to 50 μM", "method": "C2C12 cells (American Type Culture Collection) were grown at 37° C. with 5% CO2 in growth medium containing DMEM (Gibco) with 20% FBS (Sigma-Aldrich). Upon reaching 90-100% confluency, myoblasts were induced to differentiate by replacing the medium with differentiation medium consisting of DMEM with 2% horse serum (Sigma-Aldrich). Conditionally immortalized H2K WT and mdx myoblasts with a nonsense mutation in exon 23 of dystrophin were a gift from Terrance Partridge, Ph.D. (Children's National Medical Center, Washington, D.C.). […]\nRNA from myotubes treated for 48 hrs was extracted from cells using Trizol-based (Thermo Fisher Scientific) phase separation, Chomczynski et al., Biotechniques. […] RNA concentrations were determined using a NanoDrop 1000 (Thermo Fisher Scientific) and 750 ng of RNA in a 20 Id reaction was reverse transcribed using iScript cDNA synthesis (Bio-Rad) with the following cycling conditions: 25° C. for 5 mins, 42° C. for 30 mins, 85° C. for 5 mins. […] For qPCR of human samples, TaqMan assays were used to quantify SSPN (assay ID Hs01025520m 1) and ACTB (assay ID Hs01060665_g1) with the following reaction conditions: 50° C. for 2 mins, 95° C. for 10 mins, 40 cycles of 95° C. for 15 seconds and 62° C. for 1 minute. […]"}, "H2K mdx myotubes": {"tested_on": "H2K mdx myotubes", "assay": "Differentiation of mdx myotubes (fusion index, MYOG gene expression)", "conditions": "mdx myotubes, 1, 5 and 10 μM"}, "SSPN mRNA": {"tested_on": "SSPN mRNA", "assay": "siRNA-mediated knockdown of SSPN in mdx myotubes, SSPN mRNA", "method": "RNA from myotubes treated for 48 hrs was extracted from cells using Trizol-based (Thermo Fisher Scientific) phase separation, Chomczynski et al., Biotechniques. 1993; 15(3):532-4, 6-7. RNA concentrations were determined using a NanoDrop 1000 (Thermo Fisher Scientific) and 750 ng of RNA in a 20 Id reaction was reverse transcribed using iScript cDNA synthesis (Bio-Rad) with the following cycling conditions: 25° C. for 5 mins, 42° C. for 30 mins, 85° C. for 5 mins. For mouse qPCR, SsoFast EvaGreen Supermix (Bio-Rad), 400 nM of each optimized forward and reverse primer (SSPN F: 5′ […] 3′, SSPN R: 5′ […] 3′, BACT F: 5′ […] 3′, BACT R: 5′ […] 3′), and cDNA corresponding to 37.5 ng RNA were used to amplify cDNA measured by QuantStudio 5 Real-Time PCR System (Thermo Fisher Scientific) with the following reaction conditions: 55° C. for 2 mins, 95° C. for 2 mins, 40 cycles of 95° C. for 10 seconds and 62° C. for 30 seconds, and dissociation stage. For qPCR of human samples, TaqMan assays were used to quantify SSPN (assay ID Hs01025520m 1) and ACTB (assay ID Hs01060665_g1) with the following reaction conditions: 50° C. for 2 mins, 95° C. for 10 mins, 40 cycles of 95° C. for 15 seconds and 62° C. for 1 minute. […] Data was analyzed using the ddCT method and normalized to reference gene ACTB with vehicle-treated samples serving as the calibrator (relative expression of vehicle control=1). […]"}}, "data": [{"smiles": "CCN(CC)c1ccc2cc(C(=O)Nc3ccc(C(=O)N4CCCCCC4)cc3)c(=O)oc2c1", "note": "[OT-9]", "values": [{"measurement": "concentration at which the concentration-dependent SSPN mRNA response peaked", "setting": "SSPN gene expression", "value": 5.5, "unit": "µM"}, {"measurement": "MYOG gene expression", "setting": "H2K mdx myotubes", "value": "slight increase"}, {"measurement": "fusion index", "setting": "H2K mdx myotubes", "value": "slight increase"}, {"measurement": "SSPN mRNA levels under SSPN knockdown", "setting": "SSPN mRNA; 24 nM SSPN siRNA plus OT-9", "value": "increased SSPN mRNA levels"}, {"measurement": "increase of SSPN mRNA relative to the vehicle control", "setting": "SSPN mRNA; 24 nM scramble siRNA plus 1, 5 or 10 μM OT-9", "value": "up to 1.4 fold"}]}]}
